One assay deals with T1, acyl CoA-cholesterol-acyltransferase (ACAT) (Rattus norvegicus, UniProt Q7TQM4).
T1 construct: a microsome fraction prepared from a rat liver; from tissue; host or cells: rat liver microsome fraction
T1 sequence (Q7TQM4 1-524): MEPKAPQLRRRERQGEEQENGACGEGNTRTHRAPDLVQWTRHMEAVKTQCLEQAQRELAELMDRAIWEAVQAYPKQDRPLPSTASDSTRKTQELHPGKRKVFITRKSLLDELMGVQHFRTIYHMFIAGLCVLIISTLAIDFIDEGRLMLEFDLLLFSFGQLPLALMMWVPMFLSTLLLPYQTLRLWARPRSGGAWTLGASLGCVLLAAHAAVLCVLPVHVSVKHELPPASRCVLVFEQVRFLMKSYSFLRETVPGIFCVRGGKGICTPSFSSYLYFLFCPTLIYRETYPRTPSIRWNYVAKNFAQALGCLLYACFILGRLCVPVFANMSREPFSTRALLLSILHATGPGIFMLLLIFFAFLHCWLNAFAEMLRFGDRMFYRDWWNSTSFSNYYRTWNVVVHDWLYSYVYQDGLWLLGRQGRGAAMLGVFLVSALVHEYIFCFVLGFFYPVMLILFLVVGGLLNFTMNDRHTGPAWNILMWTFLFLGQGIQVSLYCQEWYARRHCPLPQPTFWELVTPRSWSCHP
Nature of the assay: ACAT inhibition test (cholesteryl oleate formed from [1-14C]oleoylCoA, rat liver microsome fraction). The class given is biochemical. The settings on record: 10^-6 M test drug, 37° C., 4 minutes, relative to control without test compound. How it is done:
ACAT inhibition tests were carried out by measuring cholesteryl oleate produced from [1-^14 C]oleoylCoA and endocellular cholesterol similarly to the method of Helgerud et al. [cf.
Thereafter, 4.2 ml of methanol and 8.3 ml of chloroform were added to the reaction mixture to stop the reaction. Then, 2.5 ml of water was added and after shaking the mixture sufficiently a chloroform layer was separated. After concentrating it, the chloroform layer was subjected to thin layer chromatography. The cholesteryl oleate formed was separated and its radioactivity was measured by a liquid scientilaltion counter.
On the other hand, the same tests as above were repeated without using test compounds. The radioactivity of the control thus obtained was used as a standard for calculating the ACAT inhibiting activity of each test compound.
As for `CCCCC/C=C\C/C=C\CCCCCCCC(=O)Nc1cccc(NC(=O)CCNC(=O)C2OC(C)(C)OCC2(C)C)c1` (stereo not drawn) [Example 9, [N-3-(Linoleylamino)phenyl]-3-[N-(2,2,5,5-tetramethyl-1,3-dioxane-4-carbonyl)amino]propanamide], testing at 1 µM gave an inhibition of 51.8%. Still for that read-out and setting: under `CCCCC/C=C\C/C=C\CCCCCCCC(=O)Nc1ccccc1NC(=O)CCNC(=O)C1OC(C)(C)OCC1(C)C` (stereo not drawn) [Example 4, N-2-(Linoleoylamino)phenyl]-3-[[N-(2,2,5,5-tetramethyl-1,3-dioxane-4-carbonyl)amino]propanamide] stands 79.8%; under `CCCCCCCC/C=C\CCCCCCCC(=O)N1CCCN(C(=O)CCNC(=O)C(OC(C)=O)C(C)(C)COC(C)=O)CC1` (stereo not drawn) [Example 194, 1-Oleoyl-4-(1-oxo-3-N-(1-oxo-2,4-diacetoxy-3,3-dimethylbutyl)aminopropyl)tetrahydro-1,4-diazepine], 62.6%; under `CCCCCCCC/C=C\CCCCCCCC(=O)NC1CCCN(C(=O)CCNC(=O)C2OC(C)(C)OCC2(C)C)C1` (stereo not drawn) [Example 168], 75.7%.

As to `CCCCCCCC/C=C\CCCCCCCC(=O)Nc1ccccc1NC(=O)CCNC(=O)C(OC(C)=O)C(C)(C)COC(C)=O` (stereo not drawn) [Example 2, N-[2-(Oleoylamino)phenyl]-3-[N-(2,4-diacetoxy-3,3-dimethyl-1-oxobutyl)amino]propanamide], the inhibition at 1 µM amounted to 64.8%. Consider `CCCCCCCC/C=C\CCCCCCCC(=O)N1CCCC(NC(=O)CCNC(=O)C2OC(C)(C)OCC2(C)C)C1` (single isomer, unassigned) [Example 171], for which the inhibition at 1 µM was 61.1%.

In turn, `CCCCCCCCCCC(C)C(=O)N1CCN(C(=O)CCNC(=O)C2OC(C)(C)OCC2(C)C)CC1` (stereo not drawn) [Example 199] returned an inhibition at 1 µM of 53.7%. Still for that read-out and setting: the figure for `CCCCCCCC/C=C\CCCCCCCC(=O)NC[C@H]1CCCN1C(=O)CCNC(=O)C1OC(C)(C)OCC1(C)C` (stereo partly drawn) [Example 167] is 64%; for `CCCCCCCC/C=C\CCCCCCCC(=O)NC[C@@H]1CCCN1C(=O)CCNC(=O)C(O)C(C)(C)CO` (stereo partly drawn) [Example 166] it is 65.7%.

For `CCCCCCCC/C=C\CCCCCCCC(=O)N1CCN(C(=O)CCNC(=O)C(O)C(C)(C)CO)CC1` (stereo not drawn) [Example 193], the inhibition at 1 µM worked out at 18.9%. The same measure, in the same setting: under `CC/C=C\C/C=C\C/C=C\CCCCCCCC(=O)Nc1ccccc1NC(=O)CCNC(=O)C1OC(C)(C)OCC1(C)C` (stereo not drawn) [Example 5] stands 56%; under `CCCCCCCC/C=C\CCCCCCCC(=O)N1CCCN(C(=O)CCNC(=O)C(O)C(C)(C)CO)CC1` (stereo not drawn) [Example 195], 48.7%. The same measure, in the same setting: under `CCCCCCCC/C=C\CCCCCCCC(=O)Nc1ccccc1OC(=O)CCNC(=O)C1OC(C)(C)OCC1(C)C` (stereo not drawn) [Example 15, 2-(Oleoylamino)phenyl 3-[N-(2,2,5,5-tetramethyl-1,3-dioxane-4-carbonyl)amino]propionate] stands 79.6%; under `CCCCCCCCC=CCCCCCCCNC(=O)N1CCN(C(=O)CCNC(=O)C2OC(C)(C)OCC2(C)C)CC1` (stereo not drawn) [Example 198], 84.3%. `CCCCCCCC/C=C\CCCCCCCC(=O)NC1CCCN(C(=O)CCNC(=O)C(O)C(C)(C)CO)C1` (stereo not drawn) [Example 169] came in with an inhibition at 1 µM of 58.3%.

Still in this assay, the particulars now being: in square brackets behind the % inhibition, range in parentheses not explained, read-out: ACAT inhibition [IC50 × 10^-7 M].
For the compound `CCCCCCCC/C=C\CCCCCCCC(=O)N[C@H]1CCCC[C@@H]1NC(=O)CCNC(=O)C1OC(C)(C)OCC1(C)C` (stereo partly drawn) [Example 70, N-[(1S,2S)-2-(Oleoylamino)cyclohexane]-3-[N-(2,2,5,5-tetramethyl-1,3-dioxane-4-carbonyl)amino]propanamide], the IC50 was 162 nM.

Consider `CCCCCCCC/C=C\CCCCCCCC(=O)N[C@H]1CCCC[C@@H]1OC(=O)CCNC(=O)C1OC(C)(C)OCC1(C)C` (stereo partly drawn) [Example 78, (1S,2S)-2-(Oleoylamino)cyclohexane-1-yl 3-[N-(2,2,5,5-tetramethyl-1,3-dioxane-4-carbonyl)amino]propionate], for which the IC50 came out at 40.1 nM. Same read-out and setting: under `CCCCCCCC/C=C\CCCCCCCC(=O)NCCCNC(=O)CCNC(=O)C1OC(C)(C)OCC1(C)C` (stereo not drawn) [Example 34] stands 385 nM; under `CCCCCCCC/C=C\CCCCCCCC(=O)NCCCCNC(=O)CCNC(=O)C1OC(C)(C)OCC1(C)C` (stereo not drawn) [Example 37, N-(4-Oleoylaminobutyl)-3-[N-(2,2,5,5-tetramethyl-1,3-dioxane-4-carbonyl)amino]propanamide], 286 nM; under `CCCCCCCC/C=C\CCCCCCCC(=O)NCCCCCCOC(=O)CCNC(=O)C1OC(C)(C)OCC1(C)C` (stereo not drawn) [Example 67], 389 nM. Still for that read-out and setting: the figure for `CCCCC/C=C\C/C=C\CCCCCCCC(=O)N[C@H]1CCCC[C@@H]1OC(=O)CCNC(=O)C1OC(C)(C)OCC1(C)C` (stereo partly drawn) [Example 80, (1S,2S)-2-(Linoleoylamino)cyclohexane-1-yl 3-[N-(2,2,5,5-tetramethyl-1,3-dioxane-4-carbonyl)amino]propionate] is 108 nM; for `CCCCCCCC/C=C\CCCCCCCC(=O)Nc1ccccc1NC(=O)CCNC(=O)C1OC(C)(C)OCC1(C)C` (stereo not drawn) [Example 1, N-[2-(Oleoylamino)phenyl]-3-[N-(2,2,5,5-tetramethyl-1,3-dioxane-4-carbonyl)amino]propanamide] it is 295 nM; for `CCCCCCCC/C=C\CCCCCCCC(=O)N[C@H]1CCCC[C@@H]1NC(=O)CCNC(=O)[C@H](O)C(C)(C)CO` [Example 74, N-[(1S,2S)-2-(Oleoylamino)cyclohexane-1-yl]-3-[N-[(2R)-2,4-dihydroxy-3,3-dimethyl-1-oxobutyl]amino]propanamide] it is 155 nM. On the same count and under the same terms, under `CCCCCCCC/C=C\CCCCCCCC(=O)Nc1ccccc1NC(=O)CCNC(=O)C(OC(C)=O)C(C)(C)COC(C)=O` (stereo not drawn) [Example 2, N-[2-(Oleoylamino)phenyl]-3-[N-(2,4-diacetoxy-3,3-dimethyl-1-oxobutyl)amino]propanamide] stands 274 nM. With `CCCCCCCC/C=C\CCCCCCCC(=O)NCCCOC(=O)CCNC(=O)C1OC(C)(C)OCC1(C)C` (stereo not drawn) [Example 47, 3-(N-oleoylamino]propyl 3-[N-(2,2,5,5-tetramethyl-1,3-dioxane-4-carbonyl)amino]propionate], the IC50 amounted to 250 nM.

On to `CCCCCCCC/C=C\CCCCCCCC(=O)N[C@H]1CCCC[C@@H]1NC(=O)CCNC(=O)[C@H](OC(C)=O)C(C)(C)COC(C)=O` [Example 71], for which the IC50 is 198 nM.

In the case of `CCCCCCCC/C=C\CCCCCCCC(=O)NCCOC(=O)CCNC(=O)C1OC(C)(C)OCC1(C)C` (stereo not drawn) [Example 44, 2-(N-Oleoylamino)ethyl 3-[N-(2,2,5,5-tetramethyl-1,3-dioxane-4-carbonyl)amino]propionate], the IC50 amounted to 686 nM. `CCCCCCCC/C=C\CCCCCCCC(=O)NCCCCCOC(=O)CCNC(=O)C1OC(C)(C)OCC1(C)C` (stereo not drawn) [Example 66]: the IC50 was determined as 355 nM.

With `CCCCCCCC/C=C\CCCCCCCC(=O)NCCNC(=O)CCNC(=O)C1OC(C)(C)OCC1(C)C` (stereo not drawn) [Example 33], the half-inhibitory concentration (IC50) stood at 299 nM.

For `CCCCCCCC/C=C\CCCCCCCC(=O)N[C@@H]1CCCC[C@H]1OC(=O)CCNC(=O)C1OC(C)(C)OCC1(C)C` (stereo partly drawn) [Example 77, (1R,2R)-2-(Oleoylamino)cyclohexane-1-yl 3-[N-(2,2,5,5-tetramethyl-1,3-dioxane-4-carbonyl)amino]propionate], the IC50 amounted to 210 nM.

The record behind these values is patent US5120738A, “Pantothenic acid derivatives” (Fujirebio Inc., priority 1990, dated 1992).
